Patent US20250177363A1, “SUBSTITUTED IMIDAZOPYRIDINYL COMPOUNDS USEFUL AS INHIBITORS OF TLR9” (Bristol-Myers Squibb Company, priority 2022, published 2025)

Experiments:
Type in all cases: cell-based
human TLR7 = biological target: T1, human TLR7 (Homo sapiens, UniProt Q9NYK1); assay: TLR7 inhibition reporter assay (HEK-Blue, SEAP); conditions: HEK-Blue cells overexpressing human TLR7, ligand gardiquimod 2.5 μM, 22 hour incubation
T1 construct: host or cells: HEK-Blue cells
T1 sequence (Q9NYK1 27-1049): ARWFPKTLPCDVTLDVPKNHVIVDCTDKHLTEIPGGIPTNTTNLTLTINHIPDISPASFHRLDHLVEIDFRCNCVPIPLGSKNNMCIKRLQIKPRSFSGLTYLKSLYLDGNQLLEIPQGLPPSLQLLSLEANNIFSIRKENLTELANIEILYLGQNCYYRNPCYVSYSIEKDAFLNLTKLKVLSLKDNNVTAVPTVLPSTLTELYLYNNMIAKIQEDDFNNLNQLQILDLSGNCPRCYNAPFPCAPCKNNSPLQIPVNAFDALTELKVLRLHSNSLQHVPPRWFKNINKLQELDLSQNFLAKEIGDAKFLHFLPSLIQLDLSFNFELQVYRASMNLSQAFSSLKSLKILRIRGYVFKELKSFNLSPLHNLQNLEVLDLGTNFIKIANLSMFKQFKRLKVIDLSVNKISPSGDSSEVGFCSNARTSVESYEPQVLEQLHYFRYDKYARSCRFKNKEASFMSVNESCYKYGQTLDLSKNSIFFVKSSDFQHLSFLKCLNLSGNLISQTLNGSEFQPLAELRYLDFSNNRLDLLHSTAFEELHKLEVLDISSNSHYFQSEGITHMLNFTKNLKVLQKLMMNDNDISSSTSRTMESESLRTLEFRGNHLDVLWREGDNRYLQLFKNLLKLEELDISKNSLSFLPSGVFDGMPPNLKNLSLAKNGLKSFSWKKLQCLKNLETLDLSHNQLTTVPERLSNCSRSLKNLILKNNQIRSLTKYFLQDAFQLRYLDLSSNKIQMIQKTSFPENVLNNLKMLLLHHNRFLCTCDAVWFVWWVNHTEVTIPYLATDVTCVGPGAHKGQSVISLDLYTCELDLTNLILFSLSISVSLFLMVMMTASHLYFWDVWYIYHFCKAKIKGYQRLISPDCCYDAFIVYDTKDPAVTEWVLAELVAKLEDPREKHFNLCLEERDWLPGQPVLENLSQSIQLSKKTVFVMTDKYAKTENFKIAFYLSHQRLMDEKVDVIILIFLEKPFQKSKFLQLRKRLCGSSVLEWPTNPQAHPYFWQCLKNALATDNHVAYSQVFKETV
In short: (§1)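 HEK-Blue cells expressing human TLR7, TLR8 or TLR9 with NF-κB/AP-1-driven SEAP reporter; compounds 0.85 nM–50 μM, pre-treated 60 min. Stimulation: gardiquimod 2.5 μM (TLR7), R848 14.25 μM (TLR8), ODN2006 200 nM (TLR9); SEAP read after 22 h at 37 °C. Percent inhibition normalized between agonist+DMSO and known-inhibitor wells.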

human TLR9 = biological target: T2, human TLR9 (Homo sapiens, UniProt Q9NR96); assay: TLR9 inhibition reporter assay (HEK-Blue, SEAP); conditions: HEK-Blue cells overexpressing human TLR9, ligand ODN2006 200 nM, 22 hour incubation
T2 construct: host or cells: HEK-Blue cells
T2 sequence (Q9NR96 26-1032): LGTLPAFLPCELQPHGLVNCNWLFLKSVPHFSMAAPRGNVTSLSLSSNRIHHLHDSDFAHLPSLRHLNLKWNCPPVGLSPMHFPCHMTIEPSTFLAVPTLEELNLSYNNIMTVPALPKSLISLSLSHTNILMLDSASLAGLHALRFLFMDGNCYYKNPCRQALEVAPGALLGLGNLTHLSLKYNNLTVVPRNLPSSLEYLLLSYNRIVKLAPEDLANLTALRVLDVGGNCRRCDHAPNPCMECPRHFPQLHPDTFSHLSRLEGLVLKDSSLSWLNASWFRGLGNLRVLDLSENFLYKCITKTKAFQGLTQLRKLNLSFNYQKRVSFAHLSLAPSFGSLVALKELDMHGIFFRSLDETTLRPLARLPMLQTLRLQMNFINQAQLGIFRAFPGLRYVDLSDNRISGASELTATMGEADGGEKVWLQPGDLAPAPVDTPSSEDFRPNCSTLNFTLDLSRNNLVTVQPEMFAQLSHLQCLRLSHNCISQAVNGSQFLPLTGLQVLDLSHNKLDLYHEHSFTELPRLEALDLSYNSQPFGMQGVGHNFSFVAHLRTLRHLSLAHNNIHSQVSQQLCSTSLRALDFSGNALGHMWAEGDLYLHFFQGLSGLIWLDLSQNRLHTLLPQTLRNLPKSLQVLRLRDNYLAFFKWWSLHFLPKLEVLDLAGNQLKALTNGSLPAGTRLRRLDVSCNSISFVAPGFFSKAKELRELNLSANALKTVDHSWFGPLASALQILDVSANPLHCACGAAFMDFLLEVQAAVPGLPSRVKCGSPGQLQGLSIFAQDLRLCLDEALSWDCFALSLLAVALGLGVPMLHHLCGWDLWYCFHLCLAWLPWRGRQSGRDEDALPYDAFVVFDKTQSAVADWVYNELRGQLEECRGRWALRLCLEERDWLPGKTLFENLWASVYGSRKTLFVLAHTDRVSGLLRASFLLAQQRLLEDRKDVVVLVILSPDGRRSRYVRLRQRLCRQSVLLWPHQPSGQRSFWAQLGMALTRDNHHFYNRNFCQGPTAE
In short: as §1

human TLR8 = biological target: T3, human TLR8 (Homo sapiens, UniProt Q9NR97); assay: TLR8 inhibition reporter assay (HEK-Blue, SEAP); conditions: HEK-Blue cells overexpressing human TLR8, ligand R848 14.25 μM, 22 hour incubation
T3 construct: host or cells: HEK-Blue cells
T3 sequence (Q9NR97 27-1041): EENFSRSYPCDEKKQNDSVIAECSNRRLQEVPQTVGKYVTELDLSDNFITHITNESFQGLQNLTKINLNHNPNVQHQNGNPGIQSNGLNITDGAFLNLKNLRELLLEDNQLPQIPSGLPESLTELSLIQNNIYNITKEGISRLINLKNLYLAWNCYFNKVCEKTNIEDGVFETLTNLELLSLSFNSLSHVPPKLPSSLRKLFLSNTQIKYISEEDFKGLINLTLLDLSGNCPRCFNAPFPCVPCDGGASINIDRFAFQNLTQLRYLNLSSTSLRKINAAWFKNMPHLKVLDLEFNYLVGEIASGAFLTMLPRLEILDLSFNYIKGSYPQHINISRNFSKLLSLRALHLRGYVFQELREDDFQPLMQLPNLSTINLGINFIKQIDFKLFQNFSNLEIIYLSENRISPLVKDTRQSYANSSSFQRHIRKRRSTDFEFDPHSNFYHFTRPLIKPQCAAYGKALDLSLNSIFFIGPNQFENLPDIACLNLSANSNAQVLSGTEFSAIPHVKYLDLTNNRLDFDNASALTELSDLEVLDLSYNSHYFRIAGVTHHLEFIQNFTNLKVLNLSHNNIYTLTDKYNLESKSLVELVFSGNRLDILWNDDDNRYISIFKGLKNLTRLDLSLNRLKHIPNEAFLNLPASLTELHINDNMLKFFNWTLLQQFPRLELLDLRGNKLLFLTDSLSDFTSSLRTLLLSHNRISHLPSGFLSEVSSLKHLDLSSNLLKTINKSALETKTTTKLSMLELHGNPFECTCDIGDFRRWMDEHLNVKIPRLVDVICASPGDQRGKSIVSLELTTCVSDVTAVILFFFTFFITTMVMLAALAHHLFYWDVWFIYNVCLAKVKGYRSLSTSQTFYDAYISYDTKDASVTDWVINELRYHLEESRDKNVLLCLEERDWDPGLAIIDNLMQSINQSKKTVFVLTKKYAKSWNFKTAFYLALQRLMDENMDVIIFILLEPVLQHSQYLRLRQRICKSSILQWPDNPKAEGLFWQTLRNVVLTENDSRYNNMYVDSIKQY
In short: as §1

| SMILES | IC50 (human TLR7) | IC50 (human TLR9) | IC50 (human TLR8) |
| --- | --- | --- | --- |
| COc1ccc(-c2nc3c(C)cc(-c4ccc(N5CCN(C(C)C)CC5)cc4)nc3n2C)cc1OC [Example 10, 2-(3,4-dimethoxyphenyl)-5-(4-(4-isopropylpiperazin-1-yl)phenyl)-3,7-dimethyl-3H-imidazo[4,5-b]pyridine] | 1900 nM | 750 nM | 17000 nM |
| COc1cc(-c2nc3c(C)cc(C4CCN([C@H]5C[C@@H]6CN(CC7CC7)C[C@@H]6C5)CC4)nc3n2C)cn2ncnc12 [Example 43, 5-(1-((3aR,5s,6aS)-2-(cyclopropylmethyl)octahydrocyclopenta[c]pyrrol-5-yl)piperidin-4-yl)-2-(8-methoxy-[1,2,4]triazolo[1,5-a]pyridin-6-yl)-3,7-dimethyl-3H-imidazo[4,5-b]pyridine] | 250 nM | 52 nM | > 50000 nM |
| COc1ccc(-c2nc3ncc(C4CCN(C5CCN(C6CC6)CC5)CC4)cc3[nH]2)cc1OC [Example 13, 6-(1′-cyclopropyl-[1,4′-bipiperidin]-4-yl)-2-(3,4-dimethoxyphenyl)-1H-imidazo[4,5-b]pyridine] | > 25000 nM | 1200 nM | > 25000 nM |
| COc1ccc(-c2nc3c(C)cc(-c4ccc(N5CC6(CN(CC(C)C)C6)C5)cc4)nc3n2C)cc1OC [Example 64, 2-(3,4-dimethoxyphenyl)-5-(4-(6-isobutyl-2,6-diazaspiro[3.3]heptan-2-yl)phenyl)-3,7-dimethyl-3H-imidazo[4,5-b]pyridine] | 6300 nM | 1400 nM | 9800 nM |
| CC(C)N1CCN(c2ccc(-c3cnc4nc(-c5ccc(S(C)(=O)=O)cc5)n(C5CC5)c4c3)cc2)CC1 [Example 51, 1-cyclopropyl-6-(4-(4-isopropylpiperazin-1-yl)phenyl)-2-(4-(methylsulfonyl)phenyl)-1H-imidazo[4,5-b]pyridine] | 2700 nM | 340 nM | 4200 nM |
| Cn1c(-c2ccc(S(C)(=O)=O)cc2)nc2ccc(C3CCN(C4CCN(C5CC5)CC4)CC3)nc21 [Example 19, 5-(1′-cyclopropyl-[1,4′-bipiperidin]-4-yl)-3-methyl-2-(4-(methylsulfonyl)phenyl)-3H-imidazo[4,5-b]pyridine] | 18000 nM | 870 nM | > 25000 nM |

Results, then the compound that gave them:

| IC50 (human TLR7) | IC50 (human TLR9) | IC50 (human TLR8) | SMILES |
| --- | --- | --- | --- |
| 13000 nM | 1700 nM | > 50000 nM | Cc1cc(-c2ccc(C3CCN(C)CC3)cc2)nc2c1nc(-c1ccc(S(C)(=O)=O)cc1)n2C1CC1 [Example 9, 3-cyclopropyl-7-methyl-5-(4-(1-methylpiperidin-4-yl)phenyl)-2-(4-(methylsulfonyl)phenyl)-3H-imidazo[4,5-b]pyridine] |
| 1400 nM | 25 nM | > 50000 nM | Cc1cc(C2CCN(C3CCN(C(C)C)CC3)CC2)nc2c1nc(-c1ccc(S(C)(=O)=O)cc1)n2C [Example 20, 5-(1′-isopropyl-[1,4′-bipiperidin]-4-yl)-3,7-dimethyl-2-(4-(methylsulfonyl)phenyl)-3H-imidazo[4,5-b]pyridine] |
| 200 nM | 320 nM | 260 nM | Cc1cc(-c2ccc(CN3CC4(C3)CN(C3CCOCC3)C4)cc2)nc2c1nc(-c1ccc(S(C)(=O)=O)cc1)n2C1CC1 [Example 5, 3-cyclopropyl-7-methyl-2-(4-(methylsulfonyl)phenyl)-5-(4-((6-(tetrahydro-2H-pyran-4-yl)-2,6-diazaspiro[3.3]heptan-2-yl)methyl)phenyl)-3H-imidazo[4,5-b]pyridine] |
| 4200 nM | 550 nM | 44000 nM | Cn1c(-c2ccc(S(C)(=O)=O)cc2)nc2ccc(-c3ccc(N4CCC5(CC4)CN(CC(C)(C)O)C5)cc3)nc21 [Example 63, 2-methyl-1-(7-(4-(3-methyl-2-(4-(methylsulfonyl)phenyl)-3H-imidazo[4,5-b]pyridin-5-yl)phenyl)-2,7-diazaspiro[3.5]nonan-2-yl)propan-2-ol] |
| 7200 nM | 100 nM | 31000 nM | Cc1cc(-c2ccc(CN3CCC(N4CCCC4)CC3)cc2)nc2c1nc(-c1ccc(S(C)(=O)=O)cc1)n2C1CC1 [Example 2, 3-cyclopropyl-7-methyl-2-(4-(methylsulfonyl)phenyl)-5-(4-((4-(pyrrolidin-1-yl)piperidin-1-yl)methyl)phenyl)-3H-imidazo[4,5-b]pyridine] |
| 1900 nM | 61 nM | > 50000 nM | Cc1cc(C2CCN(C3CCN(CC4CC4)CC3)CC2)nc2c1nc(-c1ccc(S(C)(=O)=O)cc1)n2C [Example 23, 5-(1′-(cyclopropylmethyl)-[1,4′-bipiperidin]-4-yl)-3,7-dimethyl-2-(4-(methylsulfonyl)phenyl)-3H-imidazo[4,5-b]pyridine] |
| 15000 nM | 590 nM | 6100 nM | CC(C)CN1CC2(CCN(c3ccc(-c4ccc5nc(-c6ccc(S(C)(=O)=O)cc6)n(C)c5n4)cc3)CC2)C1 [Example 62, 5-(4-(2-isobutyl-2,7-diazaspiro[3.5]nonan-7-yl)phenyl)-3-methyl-2-(4-(methylsulfonyl)phenyl)-3H-imidazo[4,5-b]pyridine] |
